Here are results for 1 compound from ChEMBL document CHEMBL3808296, “A combined in silico/in vitro approach unveils common molecular requirements for efficient BVDV RdRp binding of linear aromatic N-polycyclic systems” (Eur J Med Chem, 2016).

The test system of data set [1] is Bovine viral diarrhea virus 1. The experiment in a line: Antiviral activity against BVDV. In kind it is functional, organism-based. The conditions noted are these: Bovine viral diarrhea virus isolates and strains.
Data set [2] is described as follows: Inhibition of BVDV RNA-dependent RNA polymerase. The arrangement: species or system Bovine viral diarrhea virus 1.
Data set [3] in a line: Inhibition of HCV RNA-dependent RNA polymerase. The arrangement: species or system Hepacivirus hominis.
Data set [4] can be described thus: Cytotoxicity against mock-infected MDBK cells assessed as reduction in cell viability after 72 hrs by MTT assay. The data set is classed as cell-based, Bos taurus. The conditions noted are these: cattle. For orientation: Tetrazolium assays rely on reduction of a dye to a coloured formazan, in cell work by metabolically active cells.

As for `O=[N+]([O-])c1ccc(-c2nc3cc4cccnc4c(Cl)c3[nH]2)cc1`, the EC50 (commonly the concentration at which the effect is half-maximal) in data set [1] came to 1.2 µM. For the same compound, the half-inhibitory concentration (IC50) (as a rule, the concentration that gives 50% inhibition) in data set [2] is 0.06 µM; in data set [3] it was 8 µM. For the same compound, the CC50 (in general, the concentration at which the toxic effect on the cells reaches its halfway point) at 72 h in data set [4] was more than 100 µM.
